# Assay: The drug is tested on Clostridium ramosum strain: DSM1402 for biotransformation. The drug concentrations were measured before and after a 12-h incubation by liquid-chromatography-coupled mass spectrometry (LC–MS)
# Conditions: thomasclavelia ramosa, 2 µM
row,Compound,Bacterial Biotransformation
1,COc1cc2nc(N3CCN(C(=O)C4COc5ccccc5O4)CC3)nc(N)c2cc1OC.CS(=O)(=O)O (configuration not stated) [DOXAZOSIN MESYLATE],Compound NOT metabolized
2,CN1CCC(=C2c3ccccc3CC(=O)c3sccc32)CC1.O=C(O)/C=C/C(=O)O [KETOTIFEN FUMARATE],Compound NOT metabolized
3,NC(=O)N1c2ccccc2CC(=O)c2ccccc21 [OXCARBAZEPINE],Compound metabolized
4,COC1=C(OC)C(=O)C(CCCCCCCCCCO)=C(C)C1=O [IDEBENONE],Compound NOT metabolized

# Conditions: bacteroides fragilis, 12 h, 2 µM
# Description: The drug is tested on Bacteroides fragilis strain: NCTC 9343 for biotransformation. The drug concentrations were measured before and after a 12-h incubation by liquid-chromatography-coupled mass spectrometry (LC–MS)
row,Compound,Bacterial Biotransformation
1,COc1cc2nc(N3CCN(C(=O)C4COc5ccccc5O4)CC3)nc(N)c2cc1OC.CS(=O)(=O)O (configuration not stated) [DOXAZOSIN MESYLATE],Compound NOT metabolized
2,CN1CCC(=C2c3ccccc3CC(=O)c3sccc32)CC1.O=C(O)/C=C/C(=O)O [KETOTIFEN FUMARATE],Compound NOT metabolized
3,NC(=O)N1c2ccccc2CC(=O)c2ccccc21 [OXCARBAZEPINE],Compound NOT metabolized
4,COC1=C(OC)C(=O)C(CCCCCCCCCCO)=C(C)C1=O [IDEBENONE],Compound metabolized

# Assay: The drug is tested on Ruminococcus gnavus strain: ATCC29149 for biotransformation. The drug concentrations were measured before and after a 12-h incubation by liquid-chromatography-coupled mass spectrometry (LC–MS)
# Conditions: mediterraneibacter gnavus, 2 µM
row,Compound,Bacterial Biotransformation
1,COc1cc2nc(N3CCN(C(=O)C4COc5ccccc5O4)CC3)nc(N)c2cc1OC.CS(=O)(=O)O (configuration not stated) [DOXAZOSIN MESYLATE],Compound NOT metabolized
2,CN1CCC(=C2c3ccccc3CC(=O)c3sccc32)CC1.O=C(O)/C=C/C(=O)O [KETOTIFEN FUMARATE],Compound NOT metabolized
3,NC(=O)N1c2ccccc2CC(=O)c2ccccc21 [OXCARBAZEPINE],Compound NOT metabolized
4,COC1=C(OC)C(=O)C(CCCCCCCCCCO)=C(C)C1=O [IDEBENONE],Compound NOT metabolized

# Assay: The drug is tested on Bacteroides finegoldii strain: DSM17565 for biotransformation. The drug concentrations were measured before and after a 12-h incubation by liquid-chromatography-coupled mass spectrometry (LC–MS)
# Conditions: 2 µM
row,Compound,Bacterial Biotransformation
1,COc1cc2nc(N3CCN(C(=O)C4COc5ccccc5O4)CC3)nc(N)c2cc1OC.CS(=O)(=O)O (configuration not stated) [DOXAZOSIN MESYLATE],Compound NOT metabolized
2,CN1CCC(=C2c3ccccc3CC(=O)c3sccc32)CC1.O=C(O)/C=C/C(=O)O [KETOTIFEN FUMARATE],Compound NOT metabolized
3,NC(=O)N1c2ccccc2CC(=O)c2ccccc21 [OXCARBAZEPINE],Compound NOT metabolized
4,COC1=C(OC)C(=O)C(CCCCCCCCCCO)=C(C)C1=O [IDEBENONE],Compound NOT metabolized

# Conditions: roseburia intestinalis, 12 h, 2 µM
# Description: The drug is tested on Roseburia intestinalis strain: L1-82 for biotransformation. The drug concentrations were measured before and after a 12-h incubation by liquid-chromatography-coupled mass spectrometry (LC–MS)
row,Compound,Bacterial Biotransformation
1,COc1cc2nc(N3CCN(C(=O)C4COc5ccccc5O4)CC3)nc(N)c2cc1OC.CS(=O)(=O)O (configuration not stated) [DOXAZOSIN MESYLATE],Compound NOT metabolized
2,CN1CCC(=C2c3ccccc3CC(=O)c3sccc32)CC1.O=C(O)/C=C/C(=O)O [KETOTIFEN FUMARATE],Compound NOT metabolized
3,NC(=O)N1c2ccccc2CC(=O)c2ccccc21 [OXCARBAZEPINE],Compound metabolized
4,COC1=C(OC)C(=O)C(CCCCCCCCCCO)=C(C)C1=O [IDEBENONE],Compound NOT metabolized

# Assay: The drug is tested on Eubacterium hallii strain: DSM3353 for biotransformation. The drug concentrations were measured before and after a 12-h incubation by liquid-chromatography-coupled mass spectrometry (LC–MS)
# Conditions: anaerobutyricum hallii, 2 µM
row,Compound,Bacterial Biotransformation
1,COc1cc2nc(N3CCN(C(=O)C4COc5ccccc5O4)CC3)nc(N)c2cc1OC.CS(=O)(=O)O (configuration not stated) [DOXAZOSIN MESYLATE],Compound NOT metabolized
2,CN1CCC(=C2c3ccccc3CC(=O)c3sccc32)CC1.O=C(O)/C=C/C(=O)O [KETOTIFEN FUMARATE],Compound NOT metabolized
3,NC(=O)N1c2ccccc2CC(=O)c2ccccc21 [OXCARBAZEPINE],Compound NOT metabolized
4,COC1=C(OC)C(=O)C(CCCCCCCCCCO)=C(C)C1=O [IDEBENONE],Compound metabolized

# Conditions: bacteroides thetaiotaomicron, 12 h, 2 µM
# Description: The drug is tested on Bacteroides thetaiotaomicron strain: 3731 for biotransformation. The drug concentrations were measured before and after a 12-h incubation by liquid-chromatography-coupled mass spectrometry (LC–MS)
row,Compound,Bacterial Biotransformation
1,COc1cc2nc(N3CCN(C(=O)C4COc5ccccc5O4)CC3)nc(N)c2cc1OC.CS(=O)(=O)O (configuration not stated) [DOXAZOSIN MESYLATE],Compound NOT metabolized
2,CN1CCC(=C2c3ccccc3CC(=O)c3sccc32)CC1.O=C(O)/C=C/C(=O)O [KETOTIFEN FUMARATE],Compound NOT metabolized
3,NC(=O)N1c2ccccc2CC(=O)c2ccccc21 [OXCARBAZEPINE],Compound NOT metabolized
4,COC1=C(OC)C(=O)C(CCCCCCCCCCO)=C(C)C1=O [IDEBENONE],Compound NOT metabolized

# Assay: The drug is tested on Bacteroides fragilis strain: HMW615 for biotransformation. The drug concentrations were measured before and after a 12-h incubation by liquid-chromatography-coupled mass spectrometry (LC–MS)
# Conditions: 2 µM
row,Compound,Bacterial Biotransformation
1,COc1cc2nc(N3CCN(C(=O)C4COc5ccccc5O4)CC3)nc(N)c2cc1OC.CS(=O)(=O)O (configuration not stated) [DOXAZOSIN MESYLATE],Compound NOT metabolized

# Assay: The drug is tested on Bacteroides sp. WH2 strain: WH2 for biotransformation. The drug concentrations were measured before and after a 12-h incubation by liquid-chromatography-coupled mass spectrometry (LC–MS)
# Conditions: bacteroides sp. wh2, 12 h, 2 µM
row,Compound,Bacterial Biotransformation
1,COc1cc2nc(N3CCN(C(=O)C4COc5ccccc5O4)CC3)nc(N)c2cc1OC.CS(=O)(=O)O (configuration not stated) [DOXAZOSIN MESYLATE],Compound NOT metabolized
2,CN1CCC(=C2c3ccccc3CC(=O)c3sccc32)CC1.O=C(O)/C=C/C(=O)O [KETOTIFEN FUMARATE],Compound NOT metabolized
3,NC(=O)N1c2ccccc2CC(=O)c2ccccc21 [OXCARBAZEPINE],Compound NOT metabolized
4,COC1=C(OC)C(=O)C(CCCCCCCCCCO)=C(C)C1=O [IDEBENONE],Compound NOT metabolized

# Assay: The drug is tested on Anaerotruncus colihominis strain: DSM17241 for biotransformation. The drug concentrations were measured before and after a 12-h incubation by liquid-chromatography-coupled mass spectrometry (LC–MS)
# Conditions: 2 µM
row,Compound,Bacterial Biotransformation
1,COc1cc2nc(N3CCN(C(=O)C4COc5ccccc5O4)CC3)nc(N)c2cc1OC.CS(=O)(=O)O (configuration not stated) [DOXAZOSIN MESYLATE],Compound NOT metabolized
2,CN1CCC(=C2c3ccccc3CC(=O)c3sccc32)CC1.O=C(O)/C=C/C(=O)O [KETOTIFEN FUMARATE],Compound NOT metabolized
3,NC(=O)N1c2ccccc2CC(=O)c2ccccc21 [OXCARBAZEPINE],Compound NOT metabolized
4,COC1=C(OC)C(=O)C(CCCCCCCCCCO)=C(C)C1=O [IDEBENONE],Compound NOT metabolized

# Assay: The drug is tested on Bifidobacterium ruminantium strain: fecal isolate for biotransformation. The drug concentrations were measured before and after a 12-h incubation by liquid-chromatography-coupled mass spectrometry (LC–MS)
# Conditions: 2 µM
row,Compound,Bacterial Biotransformation
1,CN1CCC(=C2c3ccccc3CC(=O)c3sccc32)CC1.O=C(O)/C=C/C(=O)O [KETOTIFEN FUMARATE],Compound NOT metabolized
2,NC(=O)N1c2ccccc2CC(=O)c2ccccc21 [OXCARBAZEPINE],Compound metabolized
3,COC1=C(OC)C(=O)C(CCCCCCCCCCO)=C(C)C1=O [IDEBENONE],Compound NOT metabolized

# Assay: The drug is tested on Bacteroides dorei strain: DSM17855 for biotransformation. The drug concentrations were measured before and after a 12-h incubation by liquid-chromatography-coupled mass spectrometry (LC–MS)
# Conditions: phocaeicola dorei, 2 µM
row,Compound,Bacterial Biotransformation
1,COc1cc2nc(N3CCN(C(=O)C4COc5ccccc5O4)CC3)nc(N)c2cc1OC.CS(=O)(=O)O (configuration not stated) [DOXAZOSIN MESYLATE],Compound metabolized
2,CN1CCC(=C2c3ccccc3CC(=O)c3sccc32)CC1.O=C(O)/C=C/C(=O)O [KETOTIFEN FUMARATE],Compound NOT metabolized
3,NC(=O)N1c2ccccc2CC(=O)c2ccccc21 [OXCARBAZEPINE],Compound metabolized
4,COC1=C(OC)C(=O)C(CCCCCCCCCCO)=C(C)C1=O [IDEBENONE],Compound NOT metabolized

# Conditions: bacteroides intestinalis, 12 h, 2 µM
# Description: The drug is tested on Bacteroides intestinalis strain: DSM17393 for biotransformation. The drug concentrations were measured before and after a 12-h incubation by liquid-chromatography-coupled mass spectrometry (LC–MS)
row,Compound,Bacterial Biotransformation
1,COc1cc2nc(N3CCN(C(=O)C4COc5ccccc5O4)CC3)nc(N)c2cc1OC.CS(=O)(=O)O (configuration not stated) [DOXAZOSIN MESYLATE],Compound NOT metabolized
2,CN1CCC(=C2c3ccccc3CC(=O)c3sccc32)CC1.O=C(O)/C=C/C(=O)O [KETOTIFEN FUMARATE],Compound NOT metabolized
3,NC(=O)N1c2ccccc2CC(=O)c2ccccc21 [OXCARBAZEPINE],Compound NOT metabolized
4,COC1=C(OC)C(=O)C(CCCCCCCCCCO)=C(C)C1=O [IDEBENONE],Compound NOT metabolized

# Assay: The drug is tested on Providencia stuartii strain: ATCC25827 for biotransformation. The drug concentrations were measured before and after a 12-h incubation by liquid-chromatography-coupled mass spectrometry (LC–MS)
# Conditions: 2 µM
row,Compound,Bacterial Biotransformation
1,COc1cc2nc(N3CCN(C(=O)C4COc5ccccc5O4)CC3)nc(N)c2cc1OC.CS(=O)(=O)O (configuration not stated) [DOXAZOSIN MESYLATE],Compound NOT metabolized
2,CN1CCC(=C2c3ccccc3CC(=O)c3sccc32)CC1.O=C(O)/C=C/C(=O)O [KETOTIFEN FUMARATE],Compound NOT metabolized
3,NC(=O)N1c2ccccc2CC(=O)c2ccccc21 [OXCARBAZEPINE],Compound metabolized
4,COC1=C(OC)C(=O)C(CCCCCCCCCCO)=C(C)C1=O [IDEBENONE],Compound NOT metabolized

# Assay: The drug is tested on Eubacterium ventriosum strain: ATCC27560 for biotransformation. The drug concentrations were measured before and after a 12-h incubation by liquid-chromatography-coupled mass spectrometry (LC–MS)
# Type: ADME
# Set-up: dose 2 uM, timepoint 0 vs 12 hours
# Conditions: 2 µM
row,Compound,Bacterial Biotransformation
1,COc1cc2nc(N3CCN(C(=O)C4COc5ccccc5O4)CC3)nc(N)c2cc1OC.CS(=O)(=O)O (configuration not stated) [DOXAZOSIN MESYLATE],Compound NOT metabolized
2,CN1CCC(=C2c3ccccc3CC(=O)c3sccc32)CC1.O=C(O)/C=C/C(=O)O [KETOTIFEN FUMARATE],Compound NOT metabolized
3,NC(=O)N1c2ccccc2CC(=O)c2ccccc21 [OXCARBAZEPINE],Compound metabolized
4,COC1=C(OC)C(=O)C(CCCCCCCCCCO)=C(C)C1=O [IDEBENONE],Compound NOT metabolized

# Assay: The drug is tested on Collinsella aerofaciens strain: ATCC25986 for biotransformation. The drug concentrations were measured before and after a 12-h incubation by liquid-chromatography-coupled mass spectrometry (LC–MS)
# Conditions: 2 µM
row,Compound,Bacterial Biotransformation
1,COc1cc2nc(N3CCN(C(=O)C4COc5ccccc5O4)CC3)nc(N)c2cc1OC.CS(=O)(=O)O (configuration not stated) [DOXAZOSIN MESYLATE],Compound NOT metabolized
2,CN1CCC(=C2c3ccccc3CC(=O)c3sccc32)CC1.O=C(O)/C=C/C(=O)O [KETOTIFEN FUMARATE],Compound NOT metabolized
3,NC(=O)N1c2ccccc2CC(=O)c2ccccc21 [OXCARBAZEPINE],Compound NOT metabolized
4,COC1=C(OC)C(=O)C(CCCCCCCCCCO)=C(C)C1=O [IDEBENONE],Compound NOT metabolized

# Conditions: akkermansia muciniphila, 12 h, 2 µM
# Description: The drug is tested on Akkermansia muciniphila strain: ATCC BAA-835 for biotransformation. The drug concentrations were measured before and after a 12-h incubation by liquid-chromatography-coupled mass spectrometry (LC–MS)
row,Compound,Bacterial Biotransformation
1,COc1cc2nc(N3CCN(C(=O)C4COc5ccccc5O4)CC3)nc(N)c2cc1OC.CS(=O)(=O)O (configuration not stated) [DOXAZOSIN MESYLATE],Compound NOT metabolized
2,CN1CCC(=C2c3ccccc3CC(=O)c3sccc32)CC1.O=C(O)/C=C/C(=O)O [KETOTIFEN FUMARATE],Compound NOT metabolized
3,NC(=O)N1c2ccccc2CC(=O)c2ccccc21 [OXCARBAZEPINE],Compound metabolized
4,COC1=C(OC)C(=O)C(CCCCCCCCCCO)=C(C)C1=O [IDEBENONE],Compound NOT metabolized

# Conditions: limosilactobacillus reuteri cf48-3a, 12 h, 2 µM
# Description: The drug is tested on Lactobacillus reuteri CF48-3A strain: BEI HM-102 for biotransformation. The drug concentrations were measured before and after a 12-h incubation by liquid-chromatography-coupled mass spectrometry (LC–MS)
row,Compound,Bacterial Biotransformation
1,CN1CCC(=C2c3ccccc3CC(=O)c3sccc32)CC1.O=C(O)/C=C/C(=O)O [KETOTIFEN FUMARATE],Compound NOT metabolized
2,NC(=O)N1c2ccccc2CC(=O)c2ccccc21 [OXCARBAZEPINE],Compound metabolized
3,COC1=C(OC)C(=O)C(CCCCCCCCCCO)=C(C)C1=O [IDEBENONE],Compound NOT metabolized

# Assay: The drug is tested on Bacteroides xylanisolvens strain: DSM18836 for biotransformation. The drug concentrations were measured before and after a 12-h incubation by liquid-chromatography-coupled mass spectrometry (LC–MS)
# Conditions: 2 µM
row,Compound,Bacterial Biotransformation
1,CN1CCC(=C2c3ccccc3CC(=O)c3sccc32)CC1.O=C(O)/C=C/C(=O)O [KETOTIFEN FUMARATE],Compound NOT metabolized
2,COC1=C(OC)C(=O)C(CCCCCCCCCCO)=C(C)C1=O [IDEBENONE],Compound metabolized

# Assay: The drug is tested on Bifidobacterium longum subsp. Infantis strain: CCUG52486 for biotransformation. The drug concentrations were measured before and after a 12-h incubation by liquid-chromatography-coupled mass spectrometry (LC–MS)
# Conditions: 2 µM
row,Compound,Bacterial Biotransformation
1,CN1CCC(=C2c3ccccc3CC(=O)c3sccc32)CC1.O=C(O)/C=C/C(=O)O [KETOTIFEN FUMARATE],Compound NOT metabolized
2,NC(=O)N1c2ccccc2CC(=O)c2ccccc21 [OXCARBAZEPINE],Compound metabolized
3,COC1=C(OC)C(=O)C(CCCCCCCCCCO)=C(C)C1=O [IDEBENONE],Compound metabolized

# From ChEMBL document CHEMBL5303573, “Mapping human microbiome drug metabolism by gut bacteria and their genes” (Nature, 2019)
